Measurements taken from US9012674B1, “Ethyl (2R)-2-acetamido-3-(4-methylbenzoylsulfanyl)propanoate and uses thereof” (Promentis Pharmaceuticals, Inc., priority 2013, dated 2015).

Legend:
[1] = test system: human glial cells from brain astrocytoma (1321N1); test: 14C-cystine uptake in human astrocytoma cell culture; format: cell-based; settings: 100 μM (most effective concentration); three hour incubation; versus untreated control; average of three experiments
Description: The goal of these experiments was to determine ^14C-cystine uptake. The experiments were conducted as follows.
The screening of the compound was performed using an in vitro culture system of human glial cells from brain astrocytoma (1321N1). Cells were plated on 24 well plates coated with poly-D-lysine and laminin and grown in a balanced salt solution supplemented with 5% heat inactivated horse serum, 5% fetal bovine serum, 2 mM glutamine and glucose (total 21 mM). Cultures were maintained in humidified 5% CO2 incubators at 37° C. for 3-4 days before experiments were performed, at this time the cultures has formed a single confluent layer. For experiments, cultures were washed 3 times into a Na-free HEPES and HCO3^− buffered balanced salt solution. After 1 hour the test compounds are added. Following a three hour incubation, ^14C-cystine (0.025 mCi/mL) was then added for 20 minutes. Following the ^14C-cystine exposure, cultures were washed 3 times with ice cold HEPES buffered saline solution and dissolved in 250 μl sodium dodecyl sulfate (0.1%). An aliquot (200 μl) was removed and added to scintillation fluid for counting. Values were normalized to ^14C-cystine uptake in untreated controls on the same experimental plate. […]

[2] = test system: human glial cells from brain astrocytoma (1321N1); test: 3H-glutamate release in human astrocytoma cell culture; format: cell-based; settings: 300 μM (most effective concentration); at 3 hours; versus untreated control
Description: This assay also uses the cell culture system of human glial cells from brain astrocytoma (1321N1) described above. Initially, cells are washed with HBBSS, and ^3H-glutamate is added (PerkinElmer: 1 mCi/mL stock solution is diluted (30 μL+500 μL HBBSS) and 10 μL of diluted radiolabel is added to each well). Following a 1 hour incubation to load the cells with the labeled glutamate, the cells are washed again with HBBSS, and the drug is added. At 30, 90, and 180 minutes, 50 μL of extracellular media is sampled from each well and is measured using a Beckman LS 6500 scintillation counter.
Results of the ^14C-cystine uptake and ^3H-glutamate release by astrocytes treated with differing concentrations of Pro-4051, are presented in FIG. 1, as a percentage of the untreated control. […] This graph represents an average of three experiments run.

[3] = Solubility data; format: physicochemical; settings: according to solubility data; read-out: concentration above which compound is not in solution (solubility)

With `CCOC(=O)[C@H](CSC(=O)c1ccc(C)cc1)NC(C)=O` [Pro-4051, ethyl (2R)-2-acetamido-3-(4-methylbenzoylsulfanyl)propanoate] the “decrease in 14C-cystine uptake” value [1] was “approximately 28%”, the “increase in 3H-glutamate release” value [2] was “approximately 100%” and the solubility [3] was no more than 316 µM.
